Source: PubChem BioAssay (NCI)
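1) Cells in 96-well plates. 2) Compound, 48 h, 5 concentrations. 3) Linear interpolation between surrounding doses. 4) Unreached endpoint = highest concentration. TGI marks complete inhibition of growth.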

What was measured:
Assay in all cases: DTP human tumour cell line panel, 48 h
CCRF-CEM leukemia = tested on: CCRF-CEM leukemia
OVCAR-4 ovarian = tested on: OVCAR-4 ovarian
SF-539 CNS = tested on: SF-539 CNS
SK-MEL-2 melanoma = tested on: SK-MEL-2 melanoma
K-562 leukemia = tested on: K-562 leukemia
IGROV1 ovarian = tested on: IGROV1 ovarian
HCT-15 colon = tested on: HCT-15 colon
UACC-62 melanoma = tested on: UACC-62 melanoma
SK-MEL-5 melanoma = tested on: SK-MEL-5 melanoma
HT29 colon = tested on: HT29 colon
MALME-3M melanoma = tested on: MALME-3M melanoma
SNB-78 CNS = tested on: SNB-78 CNS
KM20L2 colon = tested on: KM20L2 colon
HCC-2998 colon = tested on: HCC-2998 colon
A549 NSCLC = tested on: A549 NSCLC
SNB-75 CNS = tested on: SNB-75 CNS
NCI-H460 lung = tested on: NCI-H460 lung
M14 melanoma = tested on: M14 melanoma
MOLT-4 leukemia = tested on: MOLT-4 leukemia
UO-31 renal = tested on: UO-31 renal
DMS 114 small cell lung = tested on: DMS 114 small cell lung
RXF 393 renal = tested on: RXF 393 renal
U251 CNS = tested on: U251 CNS
OVCAR-8 ovarian = tested on: OVCAR-8 ovarian
KM12 colon = tested on: KM12 colon
EKVX NSCLC = tested on: EKVX NSCLC
A498 renal = tested on: A498 renal
DLD-1 colon = tested on: DLD-1 colon
HCT-116 colon = tested on: HCT-116 colon
RXF-631 renal = tested on: RXF-631 renal
SK-OV-3 ovarian = tested on: SK-OV-3 ovarian
LXFL 529 NSCLC = tested on: LXFL 529 NSCLC
NCI-H23 lung = tested on: NCI-H23 lung
M19-MEL melanoma = tested on: M19-MEL melanoma
CAKI-1 renal = tested on: CAKI-1 renal
DMS 273 small cell lung = tested on: DMS 273 small cell lung
HL-60(TB) leukemia = tested on: HL-60(TB) leukemia
TK-10 renal = tested on: TK-10 renal
RPMI-8226 leukemia = tested on: RPMI-8226 leukemia
ACHN renal = tested on: ACHN renal
SF-295 CNS = tested on: SF-295 CNS
HOP-62 NSCLC = tested on: HOP-62 NSCLC
OVCAR-3 ovarian = tested on: OVCAR-3 ovarian
SK-MEL-28 melanoma = tested on: SK-MEL-28 melanoma
NCI-H226 lung = tested on: NCI-H226 lung
SW-620 colon = tested on: SW-620 colon
OVCAR-5 ovarian = tested on: OVCAR-5 ovarian
UACC-257 melanoma = tested on: UACC-257 melanoma
786-0 renal = tested on: 786-0 renal
XF 498 CNS = tested on: XF 498 CNS
SF-268 CNS = tested on: SF-268 CNS
SN12C renal = tested on: SN12C renal
COLO 205 colon = tested on: COLO 205 colon
NCI-H522 lung = tested on: NCI-H522 lung
SNB-19 CNS = tested on: SNB-19 CNS
LOX IMVI melanoma = tested on: LOX IMVI melanoma

Q: Which TGI (CCRF-CEM leukemia) does the source give for `O=C1CC(c2c(-c3ccccc3)[nH]c3ccccc23)C(=O)N1c1ccccc1` (configuration not stated) here?
A: Its TGI is over 100 µM.

Q: And the TGI (OVCAR-4 ovarian)?
A: Its TGI is over 100 µM.

Q: What about the TGI (SF-539 CNS) of the same molecule?
A: The TGI was over 100 µM.

Q: What about the TGI (SK-MEL-2 melanoma) of the same molecule?
A: Its TGI is over 100 µM.

Q: What about the TGI (K-562 leukemia) of the same molecule?
A: Its TGI is over 100 µM.

Q: And the TGI (IGROV1 ovarian)?
A: The TGI was over 100 µM.

Q: What about the TGI (HCT-15 colon) of the same molecule?
A: Its TGI is over 100 µM.

Q: And the TGI (UACC-62 melanoma)?
A: The TGI was over 100 µM.

Q: And the TGI (SK-MEL-5 melanoma)?
A: Its TGI is over 100 µM.

Q: And the TGI (HT29 colon)?
A: Its TGI is over 100 µM.

Q: And the TGI (MALME-3M melanoma)?
A: The TGI was over 100 µM.

Q: What about the TGI (SNB-78 CNS) of the same molecule?
A: The TGI was over 100 µM.

Q: And the TGI (KM20L2 colon)?
A: Its TGI is over 100 µM.

Q: What about the TGI (HCC-2998 colon) of the same molecule?
A: Its TGI is over 100 µM.

Q: What about the TGI (A549 NSCLC) of the same molecule?
A: The TGI was over 100 µM.

Q: What about the TGI (SNB-75 CNS) of the same molecule?
A: The TGI was over 100 µM.

Q: And the TGI (NCI-H460 lung)?
A: Its TGI is over 100 µM.

Q: And the TGI (M14 melanoma)?
A: Its TGI is over 100 µM.

Q: What about the TGI (MOLT-4 leukemia) of the same molecule?
A: Its TGI is over 100 µM.

Q: And the TGI (UO-31 renal)?
A: Its TGI is over 100 µM.

Q: What about the TGI (DMS 114 small cell lung) of the same molecule?
A: The TGI was over 100 µM.

Q: And the TGI (RXF 393 renal)?
A: The TGI was over 100 µM.

Q: What about the TGI (U251 CNS) of the same molecule?
A: Its TGI is over 100 µM.

Q: What about the TGI (OVCAR-8 ovarian) of the same molecule?
A: The TGI was over 100 µM.

Q: What about the TGI (KM12 colon) of the same molecule?
A: Its TGI is over 100 µM.

Q: And the TGI (EKVX NSCLC)?
A: Its TGI is over 100 µM.

Q: What about the TGI (A498 renal) of the same molecule?
A: Its TGI is over 100 µM.

Q: What about the TGI (DLD-1 colon) of the same molecule?
A: Its TGI is over 100 µM.

Q: And the TGI (HCT-116 colon)?
A: The TGI was over 100 µM.

Q: What about the TGI (RXF-631 renal) of the same molecule?
A: Its TGI is over 100 µM.

Q: What about the TGI (SK-OV-3 ovarian) of the same molecule?
A: Its TGI is over 100 µM.

Q: What about the TGI (LXFL 529 NSCLC) of the same molecule?
A: The TGI was over 100 µM.

Q: And the TGI (NCI-H23 lung)?
A: The TGI was over 100 µM.

Q: What about the TGI (M19-MEL melanoma) of the same molecule?
A: The TGI was over 100 µM.

Q: What about the TGI (CAKI-1 renal) of the same molecule?
A: The TGI was over 100 µM.

Q: And the TGI (DMS 273 small cell lung)?
A: The TGI was over 100 µM.

Q: And the TGI (HL-60(TB) leukemia)?
A: The TGI was over 100 µM.

Q: And the TGI (TK-10 renal)?
A: The TGI was over 100 µM.

Q: What about the TGI (RPMI-8226 leukemia) of the same molecule?
A: Its TGI is over 100 µM.

Q: And the TGI (ACHN renal)?
A: The TGI was over 100 µM.

Q: And the TGI (SF-295 CNS)?
A: Its TGI is over 100 µM.

Q: And the TGI (HOP-62 NSCLC)?
A: Its TGI is 94 µM.

Q: What about the TGI (OVCAR-3 ovarian) of the same molecule?
A: Its TGI is over 100 µM.

Q: And the TGI (SK-MEL-28 melanoma)?
A: Its TGI is over 100 µM.

Q: What about the TGI (NCI-H226 lung) of the same molecule?
A: The TGI was over 100 µM.

Q: What about the TGI (SW-620 colon) of the same molecule?
A: Its TGI is over 100 µM.

Q: And the TGI (OVCAR-5 ovarian)?
A: The TGI was over 100 µM.

Q: And the TGI (UACC-257 melanoma)?
A: The TGI was over 100 µM.

Q: And the TGI (786-0 renal)?
A: Its TGI is over 100 µM.

Q: And the TGI (XF 498 CNS)?
A: Its TGI is over 100 µM.

Q: For `NC1C=NNC1=O` (configuration not stated), which TGI (CCRF-CEM leukemia) is on record?
A: The TGI was over 100 µM.

Q: What about the TGI (OVCAR-4 ovarian) of the same molecule?
A: Its TGI is over 100 µM.

Q: And the TGI (SF-539 CNS)?
A: Its TGI is over 100 µM.

Q: What about the TGI (SK-MEL-2 melanoma) of the same molecule?
A: The TGI was over 100 µM.

Q: And the TGI (K-562 leukemia)?
A: The TGI was over 100 µM.

Q: What about the TGI (IGROV1 ovarian) of the same molecule?
A: Its TGI is over 100 µM.

Q: And the TGI (HCT-15 colon)?
A: The TGI was over 100 µM.

Q: What about the TGI (UACC-62 melanoma) of the same molecule?
A: The TGI was over 100 µM.

Q: What about the TGI (SK-MEL-5 melanoma) of the same molecule?
A: Its TGI is over 100 µM.

Q: What about the TGI (HT29 colon) of the same molecule?
A: Its TGI is over 100 µM.

Q: And the TGI (MALME-3M melanoma)?
A: Its TGI is over 100 µM.

Q: What about the TGI (SF-268 CNS) of the same molecule?
A: The TGI was over 100 µM.

Q: And the TGI (SNB-78 CNS)?
A: Its TGI is over 100 µM.

Q: What about the TGI (KM20L2 colon) of the same molecule?
A: The TGI was over 100 µM.

Q: And the TGI (HCC-2998 colon)?
A: The TGI was over 100 µM.

Q: What about the TGI (A549 NSCLC) of the same molecule?
A: Its TGI is over 100 µM.

Q: What about the TGI (SNB-75 CNS) of the same molecule?
A: Its TGI is over 100 µM.

Q: And the TGI (M14 melanoma)?
A: Its TGI is over 100 µM.

Q: What about the TGI (MOLT-4 leukemia) of the same molecule?
A: Its TGI is over 100 µM.

Q: And the TGI (UO-31 renal)?
A: Its TGI is over 100 µM.

Q: What about the TGI (SN12C renal) of the same molecule?
A: Its TGI is over 100 µM.

Q: What about the TGI (DMS 114 small cell lung) of the same molecule?
A: The TGI was over 100 µM.

Q: What about the TGI (RXF 393 renal) of the same molecule?
A: The TGI was over 100 µM.

Q: What about the TGI (U251 CNS) of the same molecule?
A: The TGI was over 100 µM.

Q: And the TGI (COLO 205 colon)?
A: Its TGI is over 100 µM.

Q: What about the TGI (NCI-H522 lung) of the same molecule?
A: The TGI was over 100 µM.

Q: What about the TGI (OVCAR-8 ovarian) of the same molecule?
A: The TGI was over 100 µM.

Q: What about the TGI (KM12 colon) of the same molecule?
A: The TGI was over 100 µM.

Q: And the TGI (EKVX NSCLC)?
A: The TGI was over 100 µM.

Q: What about the TGI (SNB-19 CNS) of the same molecule?
A: The TGI was over 100 µM.

Q: What about the TGI (DLD-1 colon) of the same molecule?
A: Its TGI is over 100 µM.

Q: What about the TGI (SK-OV-3 ovarian) of the same molecule?
A: Its TGI is over 100 µM.

Q: What about the TGI (LXFL 529 NSCLC) of the same molecule?
A: The TGI was over 100 µM.

Q: What about the TGI (NCI-H23 lung) of the same molecule?
A: Its TGI is over 100 µM.

Q: What about the TGI (CAKI-1 renal) of the same molecule?
A: Its TGI is over 100 µM.

Q: And the TGI (DMS 273 small cell lung)?
A: Its TGI is over 100 µM.

Q: What about the TGI (HL-60(TB) leukemia) of the same molecule?
A: Its TGI is over 100 µM.

Q: And the TGI (TK-10 renal)?
A: Its TGI is over 100 µM.

Q: What about the TGI (RPMI-8226 leukemia) of the same molecule?
A: The TGI was over 100 µM.

Q: And the TGI (ACHN renal)?
A: The TGI was over 100 µM.

Q: And the TGI (LOX IMVI melanoma)?
A: The TGI was over 100 µM.

Q: What about the TGI (SF-295 CNS) of the same molecule?
A: Its TGI is over 100 µM.

Q: What about the TGI (SK-MEL-28 melanoma) of the same molecule?
A: The TGI was over 100 µM.

Q: And the TGI (SW-620 colon)?
A: The TGI was over 100 µM.

Q: What about the TGI (OVCAR-5 ovarian) of the same molecule?
A: The TGI was over 100 µM.

Q: What about the TGI (UACC-257 melanoma) of the same molecule?
A: The TGI was over 100 µM.

Q: And the TGI (XF 498 CNS)?
A: Its TGI is over 100 µM.
